Test results from patent US8134015B2, “Compound inhibiting in vivo phosphorous transport and medicine containing the same” (Kyowa Hakko Kirin Co., Ltd., priority 2003, dated 2012).

Columns and labels:
rat NaPi-2b = target: T1, rat NaPi-2b (Rattus norvegicus, UniProt Q9JJ09); test: Sodium-dependent phosphate uptake of Xenopus oocytes which expressed NaPi-2b (32P); format: cell-based; settings: Xenopus oocytes expressing rat NaPi-2b, 32P radioactive phosphorus; read-out: IC50 (phosphate uptake inhibitory activity)
T1 construct: expressed in transfected cells; host or cells: Xenopus oocytes injected with cRNA
T1 sequence (Q9JJ09 1-695): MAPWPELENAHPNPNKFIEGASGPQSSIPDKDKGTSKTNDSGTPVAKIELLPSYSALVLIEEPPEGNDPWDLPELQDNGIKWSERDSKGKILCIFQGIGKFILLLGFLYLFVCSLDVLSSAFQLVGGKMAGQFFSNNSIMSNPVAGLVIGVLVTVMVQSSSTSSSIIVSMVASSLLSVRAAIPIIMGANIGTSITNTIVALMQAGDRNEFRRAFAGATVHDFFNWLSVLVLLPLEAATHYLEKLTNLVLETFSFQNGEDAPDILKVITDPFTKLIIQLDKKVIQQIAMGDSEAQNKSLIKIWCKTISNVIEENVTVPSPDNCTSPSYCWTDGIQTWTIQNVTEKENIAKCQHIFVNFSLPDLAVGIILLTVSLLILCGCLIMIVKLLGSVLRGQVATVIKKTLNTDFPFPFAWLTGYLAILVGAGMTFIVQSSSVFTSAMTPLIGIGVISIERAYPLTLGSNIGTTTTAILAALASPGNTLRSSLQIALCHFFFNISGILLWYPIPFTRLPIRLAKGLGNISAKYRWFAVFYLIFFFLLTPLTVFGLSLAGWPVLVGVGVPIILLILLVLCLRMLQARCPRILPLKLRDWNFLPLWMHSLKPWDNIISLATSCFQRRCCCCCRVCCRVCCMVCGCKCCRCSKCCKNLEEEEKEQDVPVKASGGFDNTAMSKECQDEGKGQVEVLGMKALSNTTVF
In short: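 Oocytes injected with rat NaPi-2b cRNA, cultured 2 d, then 32P uptake measured with compound. Values: % inhibition at 300 and 100 μM, both from one inhibition curve.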

human NaPi-2a = target: T2, human NaPi-2a (Homo sapiens, UniProt Q06495); test: Sodium-dependent phosphate uptake of Xenopus oocytes which expressed NaPi-2a (32P); format: cell-based; settings: Xenopus oocytes expressing human NaPi-2a; for IC50: phosphate uptake, five concentration levels
T2 construct: expressed in transfected cells
T2 sequence (Q06495 1-639): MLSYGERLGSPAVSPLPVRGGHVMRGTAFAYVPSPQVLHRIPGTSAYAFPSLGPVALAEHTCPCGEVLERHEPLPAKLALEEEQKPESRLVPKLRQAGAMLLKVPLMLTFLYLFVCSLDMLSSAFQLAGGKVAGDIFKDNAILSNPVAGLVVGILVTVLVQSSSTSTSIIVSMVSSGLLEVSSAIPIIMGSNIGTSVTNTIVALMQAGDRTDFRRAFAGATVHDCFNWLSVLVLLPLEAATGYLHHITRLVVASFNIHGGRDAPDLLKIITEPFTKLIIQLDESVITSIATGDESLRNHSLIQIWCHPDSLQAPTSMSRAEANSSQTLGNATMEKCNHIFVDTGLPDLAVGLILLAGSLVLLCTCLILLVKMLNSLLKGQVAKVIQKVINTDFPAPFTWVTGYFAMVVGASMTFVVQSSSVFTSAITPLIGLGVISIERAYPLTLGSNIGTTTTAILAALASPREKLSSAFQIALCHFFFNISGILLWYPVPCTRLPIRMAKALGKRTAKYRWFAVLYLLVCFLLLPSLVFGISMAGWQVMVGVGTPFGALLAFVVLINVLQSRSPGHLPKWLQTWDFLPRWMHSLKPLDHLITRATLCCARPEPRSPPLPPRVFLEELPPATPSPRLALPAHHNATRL
Source text: Experiment of Sodium-Dependent Phosphate Uptake of Xenopus oocytes which Expressed NaPi-2a
In the test, a group with the addition of choline chloride (Choline Cl) was used as a negative control for nonspecific uptake, and PFA (phosphonoformic acid) was used as a positive control for phosphate transport inhibition.

SMILES	IC50 (rat NaPi-2b) [µM]	IC50 (human NaPi-2a) [µM]	phosphate uptake inhibitory activity against NaPi-2a (human NaPi-2a; FIG. 3, FIG. 4)
COc1ccc(C(=O)Nc2ccccc2C(=O)N/N=C/C=C/c2ccccc2)cc1OC [Compound 1, 3,4-Dimethoxy-N-[2-(3-phenyl-allylidene-hydrazinocarbonyl)-phenyl]-benzamide]	9.11	–	concentration-dependent inhibitory activity
COc1ccc(/C=N/NC(=O)c2cc(F)ccc2NC(=O)c2cccc(CN(CC(C)O)CC(C)O)c2)cc1 (stereo not shown) [Compound 990, 3-{[Bis-(2-hydroxy-propyl)-amino]-methyl}-N-[4-fluoro-2-(4-methoxy-benzylidene-hydrazinocarbonyl)-phenyl]-benzamide]	< 3	7.14	–
Cc1ccc(/C=N/NC(=O)c2c(NC(=O)c3cccc(CN4CCC(CO)CC4)c3)sc3c2CCCC3)cc1C [Compound 639, N-[3-(3,4-Dimethyl-benzylidene-hydrazinocarbonyl)-4,5,6,7-tetrahydro-benzo[b]thiophen-2-yl]-3-(4-hydroxymethyl-piperidin-1-ylmethyl)-benzamide]	1.84	11.1	–
O=C(Nc1sc2c(c1C(=O)N/N=C/c1cccc(F)c1)CCCC2)c1cccc(CN2CCC(CO)CC2)c1 [Compound 642, N-[3-(3-Fluoro-benzylidene-hydrazinocarbonyl)-4,5,6,7-tetrahydro-benzo[b]thiophen-2-yl]-3-(4-hydroxymethyl-piperidin-1-ylmethyl)-benzamide]	2.14	13.3	–
O=C(Nc1sc2c(c1C(=O)N/N=C/c1ccc(F)cc1)CCC2)c1cccc(CN2CCC(CO)CC2)c1 [Compound 818, N-[3-(4-Fluoro-benzylidene-hydrazinocarbonyl)-5,6-dihydro-4H-cyclopenta[b]thiophen-2-yl]-3-(4-hydroxymethyl-piperidin-1-ylmethyl)-benzamide]	7.38	31.4	–
O=C(Nc1sc2ccccc2c1C(=O)N/N=C/c1cccc(F)c1)c1cccc(CN2CCC(CO)CC2)c1 [Compound 801, N-[3-(3-Fluoro-benzylidene-hydrazinocarbonyl)-benzo[b]thiophen-2-yl]-3-(4-hydroxymethyl-piperidin-1-ylmethyl)-benzamide]	4.7	3.72	–
O=C(Nc1ccc(Br)cc1C(=O)N/N=C/c1ccc(Cl)c(C(F)(F)F)c1)c1ccc(CSc2ccncc2)cc1 [Compound 260, N-[4-Bromo-2-(4-chloro-3-trifluoromethyl-benzylidene-hydrazinocarbonyl)-phenyl]-4-(pyridin-4-ylsulfanylmethyl)-benzamide]	< 3	< 3	–
Cc1csc(NC(=O)c2cccc(CN3CCN(c4ncccn4)CC3)c2)c1C(=O)N/N=C/c1ccc(F)cc1 [Compound 828, N-[3-(4-Fluoro-benzylidene-hydrazinocarbonyl)-4-methyl-thiophen-2-yl]-3-(4-pyrimidin-2-yl-piperazin-1-ylmethyl)-benzamide]	9.33	10	–
CC(O)CN(Cc1cccc(C(=O)Nc2ccc(F)cc2C(=O)N/N=C/c2cccc(F)c2)c1)CC(C)O (stereo not shown) [Compound 987, 3-{[Bis-(2-hydroxy-propyl)-amino]-methyl}-N-[4-fluoro-2-(3-fluoro-benzylidene-hydrazinocarbonyl)-phenyl]-benzamide]	< 3	16.3	–
Cc1csc(NC(=O)c2cccc(CN3CCC4(CC3)OCCO4)c2)c1C(=O)N/N=C/c1ccc(F)cc1 [Compound 834, 3-(1,4-Dioxa-8-aza-spiro[4,5]dec-8-ylmethyl]-N-[3-(4-fluoro-benzylidene-hydrazinocarbonyl)-4-methyl-thiophen-2-yl]-benzamide]	19	52.1	–

Further lines, with some results ahead:

IC50 (rat NaPi-2b) [µM]	IC50 (human NaPi-2a) [µM]	SMILES	phosphate uptake inhibitory activity against NaPi-2a (human NaPi-2a; FIG. 3, FIG. 4)
1.29	3.59	Cc1ccc(/C=N/NC(=O)c2c(NC(=O)c3cccc(CN(CC(C)O)CC(C)O)c3)sc3c2CCCC3)cc1 (stereo not shown) [Compound 628, 3-{[Bis-(2-hydroxy-propyl)-amino]-methyl}-N-[3-(4-methyl-benzylidene-hydrazinocarbonyl)-4,5,6,7-tetrahydro-benzo-[b]thiophen-2-yl]-benzamide]	–
< 0.3	5.11	Cc1ccc(/C=N/NC(=O)c2cc(N3CCCCC3)ccc2NC(=O)c2cccc(CN3CCc4nc5ncccc5cc4C3)c2)cc1C [Compound 893, 3-(7,8-Dihydro-5H-1,6,9-triaza-anthracen-6-ylmethyl)-N-[2-(3,4-dimethyl-benzylidene-hydrazinocarbonyl)-4-piperidin-1-yl-phenyl]-benzamide]	–
< 1	< 1	Cc1ccc(/C=N/NC(=O)c2cc(N3CCCCC3)ccc2NC(=O)c2cccc(CSCC(O)CO)c2)cc1C (stereo not shown) [Compound 899, 3-(2,3-Dihydroxy-propylsulfanylmethyl)-N-[2-(3,4-dimethyl-benzylidene-hydrazinocarbonyl)-4-piperidin-1-yl-phenyl]-benzamide]	–
1.75	15.1	Cc1ccc(/C=N/NC(=O)c2cc(N3CCCCC3)ccc2NC(=O)c2cccc(CSCCC(=O)O)c2)cc1 [Compound 887, 3-{3-[2-(4-Methyl-benzylidene-hydrazinocarbonyl)-4-piperidin-1-yl-phenylcarbamoyl]-benzylsulfanyl}-propionic acid]	–
< 1	< 1	O=C(Nc1ccc(N2CCCCC2)cc1C(=O)N/N=C/c1ccc(Cl)c(C(F)(F)F)c1)c1cccc(CSCC(O)CO)c1 (stereo not shown) [Compound 903, N-[2-(4-Chloro-3-trifluoromethyl-benzylidene-hydrazinocarbonyl)-4-piperidin-1-yl-phenyl]-3-(2,3-dihydroxy-propyl-sulfanylmethyl)-benzamide]	–
1.01	4.04	Cc1csc(NC(=O)c2cccc(CN(CC(C)O)CC(C)O)c2)c1C(=O)N/N=C/c1ccc(Cl)c(C(F)(F)F)c1 (stereo not shown) [Compound 591, 3-{[bis-(2-hydroxy-propyl)-amino]-methyl}-N-[3-(4-chloro-3-trifluoromethyl-benzylidene-hydrazinocarbonyl)-4-methyl-thiophen-2-yl]-benzamide]	–
1.61	15.6	Cc1ccc(/C=N/NC(=O)c2c(NC(=O)c3cccc(CN4CCC(CO)CC4)c3)sc3c2CCCC3)cc1 [Compound 640, 3-(4-Hydroxymethyl-piperidin-1-ylmethyl)-N-[3-(4-methyl-benzylidene-hydrazinocarbonyl)-4,5,6,7-tetrahydro-benzo[b]thiophen-2-yl]-benzamide]	–
0.46	< 1	CCN(CC)CCN(C)Cc1cccc(C(=O)Nc2ccc(N3CCCCC3)cc2C(=O)N/N=C/c2ccc(C)c(C)c2)c1 [Compound 858, 3-{[(2-Diethylamino-ethyl)-methyl-amino]-methyl}-N-[2-(3,4-dimethyl-benzylidene-hydrazinocarbonyl)-4-piperidin-1-ylphenyl]-benzamide]	–
0.97	9.57	CC(O)CN(Cc1cccc(C(=O)Nc2sc3ccccc3c2C(=O)N/N=C/c2ccc(F)cc2)c1)CC(C)O (stereo not shown) [Compound 794, 3-{[Bis-(2-hydroxy-propyl)-amino]-methyl}-N-[3-(4-fluoro-benzylidene-hydrazinocarbonyl)-benzo[b]thiophen-2-yl]-benzamide]	–
0.5	3.61	Cc1ccc(/C=N/NC(=O)c2cc(N3CCCCC3)ccc2NC(=O)c2cccc(CN3CCc4nc5ncccc5cc4C3)c2)cc1 [Compound 894, 3-(7,8-Dihydro-5H-1,6,9-triaza-anthracen-6-ylmethyl)-N-[2-(4-methyl-benzylidene-hydrazinocarbonyl)-4-piperidin-1-yl-phenyl]-benzamide]	–
